Patent publication US12338296B2, “Peptides and compounds that bind to elongation initiation factor 4E” (AGENCY FOR SCIENCE, TECHNOLOGY AND RESEARCH, priority 2019, dated 2025)
Peptide text beside a SMILES is read from it.

Tests used:
eIF4E [1] = target: T1, eIF4E (Homo sapiens, UniProt P06730); assay: Surface plasmon resonance Kd determination on immobilized eIF4E (Biacore T100, CM5 chip); assay type: binding; conditions: for Kd / binding to eIF4E compared with EE-02: SPR; for Kd: eIF4E immobilized on CM5 chip, 1:1 binding model, three separate titrations; for Fold change: KD relative to EE-2 (SPR); for binding to eIF4E compared with EE-02: in words
T1 construct: made in house; Plasmid and cells were provided by Cyclacel Ltd., Dundee
Procedure: Surface Plasmon Resonance (for Structural Activity Relationship (SAR) Tables)
For stock peptide solutions, the compounds were dissolved in 100% DMSO to a concentration of 10 mM; further dilutions of the peptide stock solutions into DMSO and/or running buffer were performed immediately prior to analysis. Running buffer consisted of 10 mM Hepes pH 7.6, 0.15 M NaCl, and 0.1% Tween20. Stock/DMSO diluted peptide solutions were diluted into 1.03× running buffer to make a peptide solution with 3% DMSO final concentration. […] Surface Plasmon resonance experiments were performed on a Biacore T100 machine.
Pure eIF4E was immnobilized on a CM5 sensor chip. The CM5 chip was conditioned with a 6 s injection of 100 mM HCL, followed by a 6 s injection of 0.1% SDS and completed with a 6 s injection of 50 mM NaOH at a flow rate of 100 μl/min. Activation of the sensor chip surface was performed with a mixture of NHS (115 mg ml^−1) and EDC (750 mg ml^−1) for 7 min at 10 μl min^−1. […] The amount of eIF4E immobilized on the activated surface was controlled by altering the contact time of the protein solution and was approximately 1000 RU. After the immobilization of the protein, a 7-min injection (at 10 μl min^−1) of 1 M ethanolamine (pH 8.5) was used to quench excess active succinimide ester groups.
Six buffer blanks were first injected to equilibrate the instrument fully and then a solvent correction curve was performed followed by a further two blank injections. The solvent correction curve was setup by adding varying amount of 100% DMSO to 1.03× running buffer to generate a range of DMSO solutions (3.8%, 3.6%, 3.4%, 3.2%, 3%, 2.85%, 2.7% and 2.5% respectively). Using a flow rate of 50 μl/min, compounds were injected for 60 s and dissociation was monitored for 180 s. The data collection rate was 10 Hz. Kds were determined using the BiaEvaluation software (Biacore) and calculated from both the response of the eIF4E coated CM5 chips at equilibrium and also kinetically from the dissociation and association phase data for each of the peptides. Both the equilibrium and kinetic data were fitted to 1:1 binding models. Each individual peptide Kd was determined from three separate titrations. Within each titration at least two concentration points were duplicated to ensure stability and robustness of the chip surface.
Kd were determined using surface plasmon resonance (SPR) as described in Methods.

eIF4E [2] = target: T1, eIF4E; assay: Tryptophan quenching experiments; assay type: binding; conditions: 1 μM eIF4E, 0.01-20 μM titrant, excitation 290 nm, emission 355 nm; FIG. 2
Procedure: Tryptophan Quenching Experiments
Tryptophan quenching experiments were performed using an EnVision® multiplate reader with black matte 96-well plates. […] Concentrations tested ranged from 0.01-20 μM. Samples were excited with UV light at 290 nm to minimise contribution from tyrosine fluorescence. Tryptophan was measured at an emission wavelength of 355 nm.

T1 sequence (P06730 whole entry): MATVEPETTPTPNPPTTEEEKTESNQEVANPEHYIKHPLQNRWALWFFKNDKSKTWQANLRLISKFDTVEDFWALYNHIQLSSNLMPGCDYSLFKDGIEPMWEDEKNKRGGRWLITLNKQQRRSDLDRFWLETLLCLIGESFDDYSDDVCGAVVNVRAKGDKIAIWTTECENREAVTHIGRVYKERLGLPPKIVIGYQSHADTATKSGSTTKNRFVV

Molecule | Kd (eIF4E [1]) [µM] | also measured
CSCC[C@@H]1NC(=O)[C@H](C)NC(=O)[C@@H](NC(=O)[C@H](C)N)CSSC[C@@H](C(=O)NCC(N)=O)NC(=O)[C@H](CC(=O)O)NC(=O)[C@H](CCC(N)=O)NC(=O)[C@H](Cc2ccccc2)NC(=O)[C@H](Cc2ccccc2)NC(=O)CNC1=O [EE-2A] (HELM PEPTIDE1{A.C.A.M.G.F.F.Q.D.C.G.[am]}$PEPTIDE1,PEPTIDE1,2:R3-10:R3$$$V2.0; bridges inferred) | 11 | 
C[C@H](N)C(=O)N[C@H]1CSSC[C@@H](C(=O)NCC(N)=O)NC(=O)[C@H](CC(=O)O)NC(=O)[C@H](CCC(N)=O)NC(=O)[C@H](Cc2ccccc2)NC(=O)[C@H](Cc2ccccc2)NC(=O)CNC(=O)[C@H](C)NC(=O)[C@H](CCC(=O)O)NC1=O [EE-2B] (HELM PEPTIDE1{A.C.E.A.G.F.F.Q.D.C.G.[am]}$PEPTIDE1,PEPTIDE1,2:R3-10:R3$$$V2.0) | > 50 | 
CSCC[C@@H]1NC(=O)[C@H](CCC(=O)O)NC(=O)[C@@H](NC(=O)[C@H](C)N)CSSC[C@@H](C(=O)NCC(N)=O)NC(=O)[C@H](CC(=O)O)NC(=O)[C@H](CCC(N)=O)NC(=O)[C@H](Cc2ccccc2)NC(=O)[C@H](Cc2ccccc2)NC(=O)[C@H](C)NC1=O [EE-2C] (HELM PEPTIDE1{A.C.E.M.A.F.F.Q.D.C.G.[am]}$PEPTIDE1,PEPTIDE1,2:R3-10:R3$$$V2.0; bridges inferred) | 32 | 
CSCC[C@@H]1NC(=O)[C@H](CCC(=O)O)NC(=O)[C@@H](NC(=O)[C@H](C)N)CSSC[C@@H](C(=O)NCC(N)=O)NC(=O)[C@H](CC(=O)O)NC(=O)[C@H](CCC(N)=O)NC(=O)[C@H](C)NC(=O)[C@H](Cc2ccccc2)NC(=O)CNC1=O [EE-2E] (HELM PEPTIDE1{A.C.E.M.G.F.A.Q.D.C.G.[am]}$PEPTIDE1,PEPTIDE1,2:R3-10:R3$$$V2.0) | > 50 | 
CSCC[C@@H]1NC(=O)[C@H](CCC(=O)O)NC(=O)[C@@H](NC(=O)[C@H](C)NC(C)=O)CSSC[C@@H](C(=O)NCC(N)=O)NC(=O)[C@H](CC(=O)O)NC(=O)[C@H](CCC(N)=O)NC(=O)[C@H](Cc2ccccc2)NC(=O)[C@H](Cc2ccccc2)NC(=O)CNC1=O [EE-11] | 1 | Fold change (eIF4E [1]): 4.9
CSCC[C@@H]1NC(=O)[C@H](CCC(=O)O)NC(=O)[C@@H](NC(=O)[C@H](C)N)CSSC[C@@H](C(=O)NCC(N)=O)NC(=O)[C@H](CC(=O)O)NC(=O)[C@H](CCC(N)=O)NC(=O)[C@H](Cc2ccccc2)NC(=O)[C@H](Cc2ccccc2)NC(=O)CCNC1=O [EE-27] (HELM PEPTIDE1{A.C.E.M.[bAla].F.F.Q.D.C.G.[am]}$PEPTIDE1,PEPTIDE1,2:R3-10:R3$$$V2.0) | > 50 | 
CSCC[C@@H]1NC(=O)[C@H](CCC(=O)O)NC(=O)[C@@H](NC(=O)[C@H](C)N)CSSC[C@@H](C(=O)NCC(N)=O)NC(=O)[C@H](CC(=O)O)NC(=O)[C@H](CCC(N)=O)NC(=O)[C@H](Cc2ccccc2)NC(=O)[C@H](Cc2ccccc2)NC(=O)[C@@H]2CCCN2C1=O [EE-29] (HELM PEPTIDE1{A.C.E.M.P.F.F.Q.D.C.G.[am]}$PEPTIDE1,PEPTIDE1,2:R3-10:R3$$$V2.0) | > 50 | 
CSCC[C@@H]1NC(=O)[C@H](CCC(=O)O)NC(=O)[C@@H](NC(=O)[C@H](C)N)CSSC[C@@H](C(=O)NCC(N)=O)NC(=O)[C@H](CC(=O)O)NC(=O)[C@H](CCC(N)=O)NC(=O)[C@H](Cc2ccccc2)NC(=O)[C@H](Cc2ccc(O)cc2)NC(=O)CNC1=O [EE-30] (HELM PEPTIDE1{A.C.E.M.G.Y.F.Q.D.C.G.[am]}$PEPTIDE1,PEPTIDE1,2:R3-10:R3$$$V2.0) |  | binding to eIF4E compared with EE-02 (eIF4E [1]): bound more tightly than EE-02
CSCC[C@@H]1NC(=O)[C@H](CCC(=O)O)NC(=O)[C@@H](NC(=O)[C@H](C)N)CSSC[C@@H](C(=O)NCC(N)=O)NC(=O)[C@H](CC(=O)O)NC(=O)[C@H](CCC(N)=O)NC(=O)[C@H](Cc2ccccc2)NC(=O)[C@H](CC(C)C)NC(=O)CNC1=O [EE-33] (HELM PEPTIDE1{A.C.E.M.G.L.F.Q.D.C.G.[am]}$PEPTIDE1,PEPTIDE1,2:R3-10:R3$$$V2.0) | > 50 | 
CSCC[C@@H]1NC(=O)[C@H](CCC(=O)O)NC(=O)[C@@H](NC(=O)[C@H](C)N)CSSC[C@@H](C(=O)NCC(N)=O)NC(=O)[C@H](CC(=O)O)NC(=O)[C@H](CCC(N)=O)NC(=O)[C@H](CC(C)C)NC(=O)[C@H](Cc2ccccc2)NC(=O)CNC1=O [EE-34] (HELM PEPTIDE1{A.C.E.M.G.F.L.Q.D.C.G.[am]}$PEPTIDE1,PEPTIDE1,2:R3-10:R3$$$V2.0) | > 50 | 
CSCC[C@@H]1NC(=O)[C@H](CCC(=O)O)NC(=O)[C@@H](NC(=O)[C@H](C)N)CSSC[C@@H](C(=O)NCC(N)=O)NC(=O)[C@H](CC(=O)O)NC(=O)[C@H](CCC(N)=O)NC(=O)[C@H](Cc2ccc(O)cc2)NC(=O)[C@H](Cc2ccccc2)NC(=O)CNC1=O [EE-35] (HELM PEPTIDE1{A.C.E.M.G.F.Y.Q.D.C.G.[am]}$PEPTIDE1,PEPTIDE1,2:R3-10:R3$$$V2.0) |  | binding to eIF4E compared with EE-02 (eIF4E [1]): bound more tightly than EE-02
CSCC[C@@H]1NC(=O)[C@H](CCC(=O)O)NC(=O)[C@@H](NC(=O)[C@H](C)N)CSSC[C@@H](C(=O)NCC(N)=O)NC(=O)[C@H](CC(=O)O)NC(=O)[C@H](CCC(N)=O)NC(=O)[C@H](CC(C)C)NC(=O)[C@H](CC(C)C)NC(=O)CNC1=O [EE-38] (HELM PEPTIDE1{A.C.E.M.G.L.L.Q.D.C.G.[am]}$PEPTIDE1,PEPTIDE1,2:R3-10:R3$$$V2.0) | > 50 | 
CSCC[C@@H]1NC(=O)[C@H](CCC(=O)O)NC(=O)[C@@H](NC(=O)[C@H](C)N)CSSC[C@@H](C(=O)NCC(N)=O)NC(=O)[C@H](CC(=O)O)NC(=O)[C@H](CCCCN)NC(=O)[C@H](Cc2ccccc2)NC(=O)[C@H](Cc2ccccc2)NC(=O)CNC1=O [EE-39] (HELM PEPTIDE1{A.C.E.M.G.F.F.K.D.C.G.[am]}$PEPTIDE1,PEPTIDE1,2:R3-10:R3$$$V2.0) |  | Fold change (eIF4E [1]): 0.5
CSCC[C@@H]1NC(=O)[C@H](CCC(=O)O)NC(=O)[C@@H](NC(=O)[C@H](C)N)CSSC[C@@H](C(=O)NCC(N)=O)NC(=O)[C@H](CC(=O)O)NC(=O)CNC(=O)[C@H](Cc2ccccc2)NC(=O)[C@H](Cc2ccccc2)NC(=O)CNC1=O [EE-40] (HELM PEPTIDE1{A.C.E.M.G.F.F.G.D.C.G.[am]}$PEPTIDE1,PEPTIDE1,2:R3-10:R3$$$V2.0) | 0.4 | Fold change (eIF4E [1]): 1.9
CSCC[C@@H]1NC(=O)[C@H](CCC(=O)O)NC(=O)[C@@H](NC(=O)[C@H](C)N)CSSC[C@@H](C(=O)NCC(N)=O)NC(=O)[C@H](CC(=O)O)NC(=O)[C@H](CC(C)C)NC(=O)[C@H](Cc2ccccc2)NC(=O)[C@H](Cc2ccccc2)NC(=O)CNC1=O [EE-41] (HELM PEPTIDE1{A.C.E.M.G.F.F.L.D.C.G.[am]}$PEPTIDE1,PEPTIDE1,2:R3-10:R3$$$V2.0) |  | Fold change (eIF4E [1]): 0.9
CSCC[C@@H]1NC(=O)[C@H](CCC(=O)O)NC(=O)[C@@H](N)CSSC[C@@H](C(N)=O)NC(=O)[C@H](CC(=O)O)NC(=O)[C@H](C)NC(=O)[C@H](Cc2ccccc2)NC(=O)[C@H](Cc2ccccc2)NC(=O)CNC1=O [EE-44] (HELM PEPTIDE1{C.E.M.G.F.F.A.D.C.[am]}$PEPTIDE1,PEPTIDE1,1:R3-9:R3$$$V2.0) |  | Fold change (eIF4E [1]): 0.4
KKRYSRDQLVAL (Synthetic peptide PHAGESOL) [reference compound] |  | tryptophan quenching of eIF4E (eIF4E [2]): significantly lower amounts of tryptophan quenching
